Measurements published in patent US10077238B2, “Small molecule LFA-1 inhibitors” (ALLOCYTE PHARMACEUTICALS AG, priority 2014, dated 2018).

Key:
Assay type in all cases: cell-based
Jurkat cells [1] = test: CellTiter-Glo Luminescent Cell Viability Assay (ATP), Jurkat; details: 24 hours exposure, mean ± SD of triplicates
Excerpt: (§1) Assessment of Cellular Toxicity (Toxilight Assay and CellTiter-Glo Assay)
(§2) Purpose. To detect potential cellular toxicity of present LFA-1 inhibitors two complementary assays were chosen: the Toxilight™ BioAssay (Lonza) and the CellTiter-Glo™ Luminescent Cell Viability Assay (Promega). The Toxilight assay measures cell death via the release of the cytosolic enzyme adenylate kinase into the supernatant of treated cell cultures. The CellTiter-Glo assay directly determines the key energy metabolite ATP, resulting in sensitive quantitation of the number of healthy cells in culture.
(§3) Both assays were used with two different cell lines: the Jurkat and HepG2 cell lines. Jurkat, a human lymphocytic leukemia cell line, was utilized to assess the effect of the compounds on LFA-1 expressing cells. HepG2, a human hepatocyte cell line, was used to assess the response of liver cells where drugs are metabolized. Both assays included the use of untreated cells, and cells treated with amiodarone or 0.5% Triton X 100 as cytotoxic controls.
(§4) Jurkat cells and HepG2 cells were cultured in RPMI 1640 containing 10% FCS or DMEM containing 10% FCS under standard conditions (recommended by ATCC). Compounds were dissolved in DMSO and serially pre-diluted in DMSO (100%) to avoid precipitation of the compounds, before final dilution steps in culture medium containing FCS were performed. The final DMSO concentration was kept constant at 0.5% in all samples.
(§5) The test compounds and controls were exposed to the cells for 24 hours respectively at 37° C. Then adenylate kinase activity was quantified in the supernatant of the cell cultures using the ToxiLight™ reagent. In an independent set of experiments ATP content was measured by adding the CellTiter-Glo™ reagent according to manufacturer's instructions.

VLA-4 = target: T1, VLA-4 (Homo sapiens, UniProt P05556+P13612); test: V well cell adhesion assay, VLA-4-mediated Jurkat cell binding to VCAM-1 (VLA-4 adhesion); details: Jurkat cells on VCAM-1 Fc; single experiments run in triplicates
T1 construct: endogenous in cells; host or cells: Jurkat cells
Protocol: Cell-Based Assay to Determine the Selectivity of the Compounds Over the Integrin VLA-4 (VLA-4 Adhesion)
Purpose of the Assay: This V well cell adhesion assay measures the effect of the compounds on VLA-4-mediated Jurkat cell binding to VCAM-1. The assay has been successfully used in the past to determine the selectivity of small molecule LFA-1 inhibitors over the integrin VLA-4.
Experimental Protocol: The adhesion assay was performed as described above for the Jurkat/ICAM-1 V well adhesion assay. Briefly, plates were coated with anti-human IgG mAb and blocked with BSA as described above. Instead of ICAM-1, recombinant human VCAM-1/CD106 Fc chimera (R&D Systems) was coated onto the plates (0.3 μg/mL in coating buffer). After incubation, labelled Jurkat cells in binding buffer were transferred to the wells (20,000 cells/well). The plates were immediately centrifuged at 1000 rpm for 4 min at rt (Centrifuge Eppendorf 5810 R) setting the brakeoff. Non-adherent cells were quantified in the tip of the Vbottom well using a fluorescence reader. IC50 values of the compounds were calculated using the software GraphPad Prism 6.

Jurkat cells [2] = test: Toxilight BioAssay (adenylate kinase release), Jurkat; details: 24 hours exposure, mean ± SD of triplicates
Excerpt: as §1, §2, §3, §4, §5

HepG2 cells [3] = test: Toxilight BioAssay (adenylate kinase release), HepG2; details: 24 hours exposure, mean ± SD of triplicates
Excerpt: as §1, §2, §3, §4, §5

LFA-1 [4] = target: T2, LFA-1 (Homo sapiens, UniProt P20701); test: V well cell adhesion assay, LFA-1-mediated Jurkat cell binding to ICAM-1 (LFA-1 adhesion); details: Jurkat cells on ICAM-1/Fc; mean ±SD of ≥3 independent experiments in triplicates or single experiments in triplicates
T2 construct: endogenous in cells; host or cells: Jurkat cells
Protocol: Cell-Based Assay to Determine the Effect of the Compounds on LFA-1-Mediated Cell Adhesion (LFA-1 Adhesion)
Purpose of the Assay: The V well cell adhesion assay measures the ability of the compounds to interfere with LFA-1-mediated binding to ICAM-1 at cellular level. The assay has been successfully used in the past to identify and characterize small molecules LFA-1 inhibitors.
Experimental Protocol: The adhesion assay was performed in Vbottom 96-well plates as described previously [Weitz-Schmidt 2012]. Briefly, the plates were coated with anti-human IgG mAb diluted in coating buffer (20 mM Tris containing 150 mM NaCl, pH 8) (1 μg/mL) and incubated overnight at 4° C. The plates were flicked out and blocked with blocking buffer (50 mM Tris base, 150 mM NaCl, 1.5% BSA (w/v), pH 7.2) at 37° C. for 90 min. Then human recombinant ICAM-1/Fc (R&D Systems) diluted in coating buffer (0.3 μg/mL) was added to each well. The plates were incubated at 37° C. for 90 min and washed with binding buffer (50 mM Tris base, 150 mM NaCl, 1.5% BSA (w/v), 2 mM MgCl2, 2 mM MnCl2, 5 mM D-glucose monohydrate, pH 7.2-7.4) to remove unbound ligand.
Jurkat cells were cultured under standard conditions as recommended by the American Type Culture collection (ATCC). The cells were fluorescently labelled with BCECF-AM in PBS (1 μg/mL) at 37° C. for 20 min in the dark, centrifuged and washed with PBS. The test compounds were dissolved in DMSO at 10 mM and serially pre-diluted in DMSO (100%) to avoid precipitation, before performing final dilution steps in binding buffer.
The labelled Jurkat cells were re-suspended in binding buffer and test compounds or solvent control were added. The DMSO concentration was kept constant in all samples (1% DMSO as final assay concentration). After 40 min at 37° C. (LFA-1 activation and compound pre-incubation step) the cell suspension (3×10^5 cells/mL in binding buffer) was pipetted up and down and transferred to the ligand-coated microtiter V well plates (30 000 cells/well). The plates were centrifuged for 4 min at room temperature (rt) at 1000 rpm (Centrifuge Eppendorf 5810 R), setting the brake off Non-adherent cells that accumulated in the center of the Vbottom were quantified using a fluorescence reader with the filter sets allowing excitation at 485 nm and quantification of emission at 535 nm. The determination of the half maximal inhibitory concentration (IC50) of the compounds was calculated using the software GraphPad Prism 6.

HepG2 cells [5] = test: CellTiter-Glo Luminescent Cell Viability Assay (ATP), HepG2; details: 24 hours exposure, mean ± SD of triplicates
Excerpt: as §1, §2, §3, §4, §5

LFA-1 [6] = target: T2, LFA-1; test: Flow cytometry, mAb R7.1 binding to LFA-1 expressed on leukocytes; details: Jurkat cells or human PBMCs, values of independent experiments; for inhibition at 1 µM: Jurkat
Protocol: Measurement of mAb R7.1 binding to LFA-1 (mAb R7.1 binding)
Purpose of the Assay: This flow cytometry assay determines the effect of the compounds on the binding of the anti-LFA-1 mAb R7.1 to LFA-1 expressed on leukocytes.
Experimental Protocol: Jurkat cells or human peripheral blood mononuclear cells (PBMCs) were resuspended in assay buffer (50 mM Tris, 150 mM NaCl, 2 mM MgCl2, 1.5% BSA and 5 mM D-glucose monohydrate, pH7.2) at 2×10^6 cells/mL and 500 μL of this cell suspension (1×10^6 cells) were transferred into polypropylene tubes containing the test compounds diluted in 500 μL assay buffer. The samples were pre-incubated at 37° C. for 40 min, and centrifuged. The supernatants were removed and FITC-labelled anti-LFA-1 mAb R7.1 and PE-labeled anti-LFA-1 mAb TS2/4 (mAb TS2/4 is not affected by alpha I allosteric inhibitor binding to LFA-1) or appropriate isotype controls were added directly to each cell pellet. The pellets were then gently pipetted up and down and incubated on ice for 30 min in the dark. After the incubation step the cells were washed twice with PBS and resuspended in PBS.
Antibody binding was analyzed by flow cytometry. Mean fluorescence intensities (MFI) were calculated using the CellQuest software. The values are expressed as % of solvent control (solvent control=100% binding).

LFA-1 [7] = target: T2, LFA-1; test: Flow cytometry, mAb MEM148 binding to LFA-1 expressed on leukocytes; details: solvent ctrl = 1, Jurkat cells or PBMCs
Protocol: Quantification of mAb MEM148 Binding to LFA-1 (mAb MEM148 Binding)
Purpose of the Assay: This flow cytometry assay determines the effect of the compounds on the binding of the conformation-sensitive anti-LFA-1 mAb MEM148 to LFA-1 expressed on leukocytes. The mAb MEM148 detects an epitope which becomes exposed in activated LFA-1 [Yuki 2012]
Experimental Protocol: The assay is performed as the flow cytometry assay described above.
Briefly, Jurkat cells or PBMCs in assay buffer (50 mM Tris, 150 mM NaCl, 1 mM CaCl2, 1 mM MgCl2, 5 mM Glucose, 1.5% BSA, pH 7.3) were pre-incubated with the compounds and appropriate positive controls for 40 min at rt. After incubation, the cell-suspension was centrifuged, the supernatant discarded and PE-labelled anti-LFA-1 mAb MEM148 was directly added to the pellets. After pipetting up and down, the tubes were incubated for 30 min. at 37° C. in the dark. The pellet was washed twice with 1 mL PBS and resuspended in PBS. Antibody binding was quantified by flow cytometry. Mean fluorescence intensities (MFI) were calculated using the CellQuest software.

T2 sequence (P20701 26-1170): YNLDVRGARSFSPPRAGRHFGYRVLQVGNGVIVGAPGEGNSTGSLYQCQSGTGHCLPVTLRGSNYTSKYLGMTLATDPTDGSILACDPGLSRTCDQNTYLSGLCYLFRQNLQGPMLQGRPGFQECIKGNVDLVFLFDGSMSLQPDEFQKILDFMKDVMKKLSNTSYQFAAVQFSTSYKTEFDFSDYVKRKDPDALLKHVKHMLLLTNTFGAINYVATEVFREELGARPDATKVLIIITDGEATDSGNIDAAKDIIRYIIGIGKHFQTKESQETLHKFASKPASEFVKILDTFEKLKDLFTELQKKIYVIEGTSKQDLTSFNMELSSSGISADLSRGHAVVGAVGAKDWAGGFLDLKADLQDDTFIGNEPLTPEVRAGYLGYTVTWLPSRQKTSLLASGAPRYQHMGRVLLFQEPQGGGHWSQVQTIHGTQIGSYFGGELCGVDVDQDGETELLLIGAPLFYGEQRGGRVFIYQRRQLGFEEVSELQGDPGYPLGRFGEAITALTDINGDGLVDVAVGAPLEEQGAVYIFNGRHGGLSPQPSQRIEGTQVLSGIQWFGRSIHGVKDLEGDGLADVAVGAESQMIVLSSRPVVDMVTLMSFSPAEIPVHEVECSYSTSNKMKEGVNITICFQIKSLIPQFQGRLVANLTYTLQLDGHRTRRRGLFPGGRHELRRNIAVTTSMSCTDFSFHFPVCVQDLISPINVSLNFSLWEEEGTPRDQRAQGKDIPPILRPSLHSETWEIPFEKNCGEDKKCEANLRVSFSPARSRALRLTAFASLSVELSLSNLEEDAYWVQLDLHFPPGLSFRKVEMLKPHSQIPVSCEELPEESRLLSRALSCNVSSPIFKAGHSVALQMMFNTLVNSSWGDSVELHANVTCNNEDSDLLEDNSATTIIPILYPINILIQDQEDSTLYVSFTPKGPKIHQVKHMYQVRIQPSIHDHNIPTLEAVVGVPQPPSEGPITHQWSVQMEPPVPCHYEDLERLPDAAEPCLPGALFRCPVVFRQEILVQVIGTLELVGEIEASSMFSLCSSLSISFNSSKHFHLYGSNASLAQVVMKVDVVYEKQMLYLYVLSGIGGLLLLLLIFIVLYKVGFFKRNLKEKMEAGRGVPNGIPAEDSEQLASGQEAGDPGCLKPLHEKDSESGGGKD
T2 sequence (P05107 23-769 partner): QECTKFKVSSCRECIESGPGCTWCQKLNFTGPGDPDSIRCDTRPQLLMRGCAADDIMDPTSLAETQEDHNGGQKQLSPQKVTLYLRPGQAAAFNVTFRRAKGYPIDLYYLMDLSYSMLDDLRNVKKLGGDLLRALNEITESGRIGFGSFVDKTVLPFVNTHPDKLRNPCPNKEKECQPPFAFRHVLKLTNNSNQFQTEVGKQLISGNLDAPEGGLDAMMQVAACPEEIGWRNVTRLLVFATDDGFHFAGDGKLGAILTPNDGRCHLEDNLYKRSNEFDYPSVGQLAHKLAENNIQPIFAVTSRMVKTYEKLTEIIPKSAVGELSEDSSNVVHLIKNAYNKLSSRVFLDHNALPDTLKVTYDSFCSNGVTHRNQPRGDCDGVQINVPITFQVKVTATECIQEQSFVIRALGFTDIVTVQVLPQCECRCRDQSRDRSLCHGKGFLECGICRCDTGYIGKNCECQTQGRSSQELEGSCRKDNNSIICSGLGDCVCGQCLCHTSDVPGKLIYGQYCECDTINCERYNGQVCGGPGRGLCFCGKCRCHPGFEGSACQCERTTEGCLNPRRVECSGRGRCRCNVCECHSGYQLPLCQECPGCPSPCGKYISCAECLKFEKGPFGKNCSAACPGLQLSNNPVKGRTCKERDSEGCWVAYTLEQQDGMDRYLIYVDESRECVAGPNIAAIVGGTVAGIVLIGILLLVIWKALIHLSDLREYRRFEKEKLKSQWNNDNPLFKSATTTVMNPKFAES
T1 sequence (P13612 34-1032): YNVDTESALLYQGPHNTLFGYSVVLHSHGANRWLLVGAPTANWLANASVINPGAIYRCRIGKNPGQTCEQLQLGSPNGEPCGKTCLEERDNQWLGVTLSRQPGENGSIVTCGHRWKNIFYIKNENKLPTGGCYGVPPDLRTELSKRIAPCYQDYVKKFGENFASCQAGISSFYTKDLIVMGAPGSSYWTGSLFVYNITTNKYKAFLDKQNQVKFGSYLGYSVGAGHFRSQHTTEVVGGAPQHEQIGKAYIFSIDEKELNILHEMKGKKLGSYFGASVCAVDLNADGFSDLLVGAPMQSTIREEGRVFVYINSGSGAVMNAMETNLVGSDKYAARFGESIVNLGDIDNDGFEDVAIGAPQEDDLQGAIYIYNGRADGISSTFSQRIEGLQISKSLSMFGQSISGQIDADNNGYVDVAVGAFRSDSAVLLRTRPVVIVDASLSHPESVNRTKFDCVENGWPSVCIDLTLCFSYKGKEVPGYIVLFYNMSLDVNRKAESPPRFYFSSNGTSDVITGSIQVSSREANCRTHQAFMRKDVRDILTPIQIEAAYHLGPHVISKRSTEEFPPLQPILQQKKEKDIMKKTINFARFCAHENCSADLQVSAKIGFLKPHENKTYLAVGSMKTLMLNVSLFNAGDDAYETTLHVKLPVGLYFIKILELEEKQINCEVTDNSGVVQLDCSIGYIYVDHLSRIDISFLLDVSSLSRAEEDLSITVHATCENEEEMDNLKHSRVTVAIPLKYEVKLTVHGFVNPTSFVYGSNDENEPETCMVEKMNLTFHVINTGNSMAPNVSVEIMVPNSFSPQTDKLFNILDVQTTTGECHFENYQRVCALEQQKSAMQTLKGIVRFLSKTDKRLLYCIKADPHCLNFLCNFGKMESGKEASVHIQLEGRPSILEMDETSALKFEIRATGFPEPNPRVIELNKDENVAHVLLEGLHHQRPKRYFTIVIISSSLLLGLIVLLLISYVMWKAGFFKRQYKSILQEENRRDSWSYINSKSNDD
T1 sequence (P05556 21-798): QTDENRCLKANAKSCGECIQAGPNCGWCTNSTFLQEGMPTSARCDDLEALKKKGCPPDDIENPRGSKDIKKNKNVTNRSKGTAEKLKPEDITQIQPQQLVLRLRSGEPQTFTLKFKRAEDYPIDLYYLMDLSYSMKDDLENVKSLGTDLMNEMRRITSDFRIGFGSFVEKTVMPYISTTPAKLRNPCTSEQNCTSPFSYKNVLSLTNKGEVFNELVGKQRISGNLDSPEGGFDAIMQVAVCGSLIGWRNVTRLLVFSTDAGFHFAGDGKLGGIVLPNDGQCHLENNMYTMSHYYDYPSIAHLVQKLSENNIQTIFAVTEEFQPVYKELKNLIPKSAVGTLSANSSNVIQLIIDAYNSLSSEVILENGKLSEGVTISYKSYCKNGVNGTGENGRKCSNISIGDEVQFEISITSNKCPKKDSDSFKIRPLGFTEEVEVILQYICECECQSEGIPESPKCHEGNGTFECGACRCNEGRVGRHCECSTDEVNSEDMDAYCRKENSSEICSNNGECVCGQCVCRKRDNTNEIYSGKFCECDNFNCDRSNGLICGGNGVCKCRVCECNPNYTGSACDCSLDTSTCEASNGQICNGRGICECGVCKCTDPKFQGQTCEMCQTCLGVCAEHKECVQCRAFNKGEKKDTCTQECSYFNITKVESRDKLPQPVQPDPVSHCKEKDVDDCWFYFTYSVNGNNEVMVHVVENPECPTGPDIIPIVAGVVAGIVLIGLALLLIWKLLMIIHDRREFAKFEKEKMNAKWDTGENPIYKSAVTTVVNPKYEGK

| SMILES | CellTiter-Glo Jurkat % viability at 10 μM (Jurkat cells [1]) [%] | IC50 (VLA-4) [µM] | Toxilight Jurkat % viability at 10 μM (Jurkat cells [2]) [%] | Toxilight HepG2 % viability at 10 μM (HepG2 cells [3]) [%] | IC50 (LFA-1 [4]) [µM] | CellTiter-Glo HepG2 % viability at 10 μM (HepG2 cells [5]) [%] | mAb R7.1 binding % inhibition at 1 μM (LFA-1 [6]) [%] | inhibition at 1 µM (LFA-1 [6]) [%] | mAb MEM148 binding, binding relative to solvent ctrl at 10 μM (LFA-1 [7]) |
| --- | --- | --- | --- | --- | --- | --- | --- | --- | --- |
| C[C@]12C(=O)N(c3cc(Cl)cc(Cl)c3)C(=O)[C@H]1C2(c1ccccc1)c1ccccc1 (racemic) [4b (racemate), rac-(1S,5S)-3-(3,5-Dichlorophenyl)-1-methyl-6,6-diphenyl-3-azabicyclo[3.1.0]hexane-2,4-dione] | 96.8 ± 4.7 | > 10 | 101 ± 9.8 | 124 ± 29.7 | 1.87 ± 1.27 | 98.4 ± 3.8 | 80.0 | 76.9 | 0.974 |
| C[C@]12C(=O)N(c3cc(Cl)cc(Cl)c3)C(=O)[C@H]1[C@H]2c1ccc(Br)cc1 (racemic) [4′f (racemate), rac-(1R,5S,6S)-6-(4-Bromophenyl)-3-(3,5-dichloro-phenyl)-1-methyl-3-azabicyclo[3.1.0]hexane-2,4-dione] | 115.0 ± 4.8 | > 10 | 99.9 ± 24.2 | 115.6 ± 35.1 | 0.715 ± 0.618 | 101.6 ± 4.0 | 91.7 | 85.2 | 0.96 |
| C[C@]12C(=O)N(c3cc(Cl)cc(Cl)c3)C(=O)[C@H]1[C@H]2c1ccc(OC(F)(F)F)cc1 (racemic) [4′g (racemate), rac-(1R,5S,6S)-3-(3,5-Dichlorophenyl)-1-methyl-6-[4-(trifluoromethoxy)phenyl]-3-azabicyclo[3.1.0]hexane-2,4-dione] | 111.4 ± 7.4 | > 10 | 116 ± 16.2 | 99.8 ± 26.5 | 0.55 ± 0.206 | 102.6 ± 4.5 | 94.1 | 93.6 | 0.89 |
| C[C@]12C(=O)N(c3cc(Cl)cc(Cl)c3)C(=O)[C@H]1[C@H]2c1ccc(C#N)cc1 (racemic) [4′h (racemate), rac-4-[(1R,5S,6S)-3-(3,5-Dichlorophenyl)-1-methyl-2,4-dioxo-3-azabicyclo[3.1.0]hexan-6-yl]benzonitrile] | 112.6 ± 4.9 | > 10 | 93.5 ± 2.06 | 78.3 ± 35.2 | 0.147 | 103.7 ± 3.2 | 95.8 | 96.8 | 1.00 |
| CCOC(=O)[C@@]1(c2ccc(Br)cc2)[C@@H]2C(=O)N(c3cc(Cl)cc(Cl)c3)C(=O)[C@@]21C (racemic) [4′j (racemate), rac-Ethyl-(1 S, 5R, 6R)-6-(4-bromophenyl)-3-(3,5-dichlorophenyl)-1-methyl-2,4-dioxo-3-azabicyclo[3.1.0]-hexane-6-carboxylate] | – | > 10 | – | – | 0.375 ± 0.204 | – | – | 93.6 | 0.738 |
| CC12C(=O)N(c3cc(Cl)cc(Cl)c3)C(=O)C1C2(c1ccccc1)c1ccccc1 (single isomer, unassigned) [4b enantiomer A] | 92.8 ± 4.7 | > 10 | 100 ± 12.9 | 120 ± 40.2 | 1.34 ± 0.678 | 101.5 ± 1.9 | – | 87.3 | no |
| CC12C(=O)N(c3cc(Cl)cc(Cl)c3)C(=O)C1C2(c1ccc(C#N)cc1)c1ccc(OC(F)(F)F)cc1 (single isomer, unassigned) [4i/4′i diastereomer II (racemate), rac-4-[(1 S, 5S, 6S)- and rac-4-(1 S, 5S, 6R)-3-(3,5-Dichlorophenyl)-1-methyl-2,4-dioxo-6-[4-(trifluoro-methoxy)-phenyl]-3-azabicyclo[3.1.0]hexan-6-yl]benzonitrile] | – | > 10 | – | – | 0.018 ± 0.014 | – | – | 98.6 | 0.937 |
